Test results reported in US10258599B2, “Compounds for use in the prevention or treatment of cancer” (SEMMELWEIS UNIVERSITY, priority 2014, dated 2019).
Where a name gives a salt, the structure may show the parent alone.

Experiments:
[1] = tested on: isolated rat brain stem; details: optimal concentration for the specific enhancer effect, 3-min collection period; review Knoll, 2005; cited from earlier work
[2] = tested on: catecholaminergic neurons; experiment: Shuttle box: antagonism of tetrabenazine-induced learning deficit (conditioned avoidance reflex); assay type: in vivo, rat
Method: In a modified version of the shuttle box the acquisition of a two-way conditioned avoidance reflex (CAR) was analyzed during 5 consecutive days. The rat was put in a box divided inside into two parts by a barrier with a small gate in the middle, and the animal was trained to cross the barrier under the influence of a conditioned stimulus (CS, light flash). […] One trial consisted of 10 s intertrial interval, followed by 20 s CS. The last 5 s of CS overlaped the 5 s US. At each learning session, the number of CARs, EFs and intersignal reactions (IRs) are automatically counted and evaluated by multi-way ANOVA.
Tetrabenazine-treatment (1 mg/kg s.c.) depletes at least 90% of norepinephrine and dopamine from their stores in the nerve terminals of the catecholaminergic neurons in the brain stem. Due to the weak performance of the catecholaminergic brain engine, the activation of the cortical neurons remains below the level required for the acquisition of a CAR. The learning deficit caused by tetrabenazine-treatment can be antagonized by the administration of a synthetic CAE substance or an A-type MAO inhibitor, whereas selective inhibition of B-type MAO or inhibition of the reuptake of catecholamines and/or serotonin is ineffective (Knoll et al., 1992).

[3] = tested on: lung carcinoma; experiment: Longevity study on FVB/N mice: spontaneous lung carcinoma at autopsy; assay type: in vivo, mouse; details: 18-month
Method: Body weight is measured bimonthly.
For monitoring, we planned to sacrifice mice from each group at 6-month, 1-year, 1.5-year and 2-year time-points; the rest of the animals are kept until spontaneous death.
The results are shown in Table 4 and on FIGS. 19 and 20. Significance levels were calculated with two-sided Chi-square test.

[4] = tested on: Wistar-Logan strain of rats; details: cited from earlier work
[5] = tested on: male Wistar rats (Charles River); experiment: Longevity study: survival of rats treated 3 times a week s.c.; assay type: in vivo, rat
Method: Experiments were carried out on male Wistar rats (Charles River) weighing 250-350 g received from the breeding colony of Semmelweis University. The animals were kept in a 12-hour light-dark cycle and under condition of controlled temperature (22±2° C.) and relative humidity (55±5%). Room temperature and relative humidity was checked daily. The rats were maintained on standard laboratory chow and tap water ad libitum. All procedures conformed to the European Convention for the protection of vertebrate animals used for experimental and other scientific purposes. The study was approved by the Animal Ethics Committee of Semmelweis University, Budapest (permission number: 1810/003/2004)
(§1) The longevity study was performed on 200 male rats received from the breeding colony of the Semmelweis University. The rats were born at the end of February of 2010. After 2-month acclimation period the rats were divided randomly into 5 even groups. The longevity study started at the beginning of May 2010. Animals were observed until their natural deaths. The data in this study represent the changes observed until Oct. 31, 2012, since in the saline-treated group the last animal died on Oct. 31, 2012. As will be shown later a few rats in the enhancer-treated groups were still alive on Nov. 1, 2012.
(§2) During the longevity study 5 rats were housed together in polycarbonate cages (height: 18 cm; wide: 42 cm; length: 44 cm) with a stainless steel on the top. Cage bedding was renewed 3 times a week (Monday, Wednesday and Friday). Bodyweight was measured once every month. The treatment started at the end of the second month of their age.
To avoid the mixing of the groups and individuals, saline-treated rats were signed blue from 1 to 40; D-treated rats were signed green from 1 to 80 (1-40: rats treated with 0.1 mg/kg and 41-80: rats treated with 0.001 mg/kg); B-treated rats were signed black from 1 to 80 (1-40: rats treated with 0.05 mg/kg and 41-80: rats treated with 0.0001 mg/kg).
(§3) Significance in the performance between the groups in the shuttle box was evaluated by multi-factor analysis of variance (ANOVA). Significance regarding the span of time from tumor manifestation until death in rats and regarding aging related changes in bodyweight treated chronically with the enhancer substances was analyzed by One-way ANOVA. Statistical analysis of survival rate and tumor manifestation was performed by the Kaplan-Meier method.

[6] = tested on: fibromyxosarcoma; experiment: Longevity study: manifestation of subcutaneous fibromyxosarcoma (TMS effect); assay type: in vivo, rat; details: for tumor manifestation suppressing (TMS) effect versus saline: Kaplan-Meier
Method: as §1, §2
We carefully observed the appearance of the subcutaneous tumor and followed the development of the tumor until death. Histological analysis was performed post mortem on several rats taken from each group as examples.
The subcutaneous tumors developed in the rats were measured by the two largest diameters. After sacrificing the animals, the tumors were removed, photographs were taken. Tissues were fixed immediately after removal in 10% neutral formalin (in PBS, pH7.0) for 24 hours at room temperature, dehydrated and embedded in paraffin. 3-4 micrometer thick sections were cut and stained by hematoxylin and eosin (HE) as a routine.
as §3

[7] = tested on: UW-228-2 cell line; experiment: MTT proliferation assay, UW-228-2 medulloblastoma cells; assay type: cell-based, human; details: UW-228-2, monotherapy, nine concentrations 10^-14 to 10^-6 M, 72 hours
Method: (§4) Human medulloblastoma cell line, Daoy was purchased from ATCCC, UW-228 was obtained from the courtesy of Professor Silber (Univerity of Washington, Seattle, Wash., USA).
(§5) Daoy and UW-228-2 cell lines were maintained in culture medium (each 500 ml Minimum Essential Medium Eagle, Alpha Modification (M8042, Sigma, St Louis, USA) with 50 ml FCS (Gibco), 40 mg Gentamicin (Sandoz), 5 ml sodium-pyruvate (S8636, Sigma, St Louis, USA), 5 ml non-essential-amino acid solution (M7145, Sigma, St Louis, USA), 10 ml L-glutamin (Sigma, St Louis, USA) at 37° C. in humified 5% CO2.
(§6) In each well 3×10^3 Daoy or UW-228-2 cells were seeded in 96-well plates (Sarstedt), solved in 100 μl of its own medium with 10% FCS. 24 hours after seeding, cells were treated for 72 hours by drugs solved in further 100 μl medium. First, both cell lines were treated by (−)-BPAP and (−)-deprenil in monotherapy to determine its dose-effect curves in concentration of 10^−6, 10^−7, 10^−8, 10^−9, […], 10^−11, 10^−12, 10^−13 and 10^−14 M. In combined treatment 10^−3, 3.3×10^−4, […] and 3.7×10^−5 M of temozolomide (Schering Plough, USA) or 0.04, 0.2, 1, 5 μM of Cisplatin (Ebewe Pharma, Austria) or 0.04, 0.2, 1, 5 μM of etoposide (Ebewe Pharma, Austria) or 10^−7, 10^−6, 10^−5 and 10^−4 μM (UW228-2) or 0.001, 0.005, 0.025 and 0.125 μM (Daoy) of Vincristin (Richter Gedeon, Hungary) were applied in monotherapy or combined with 10^−13 or 10^−8 M of (−)-BPAP or (−)-deprenil.
(§7) Cell proliferation was evaluated by MTT (3-(4,5-Dimethylthiazol-2-yl)-2,5-diphenyltetrazolium bromide) assay (M5655, Sigma) after 72-hour treatment by the method described in manufacturer's protocol.

[8] = tested on: Daoy HTB-186 cell line; experiment: MTT proliferation assay, Daoy medulloblastoma cells; assay type: cell-based, human; details: monotherapy, nine concentrations 10^-14 to 10^-6 M, 72 hours
Method: as §4, §5, §6, §7

[9] = tested on: catecholaminergic neurons in the brain stem; details: 1 mg/kg s.c.; cited from earlier work
[10] = tested on: isolated rat brain stem; experiment: Release of labelled transmitter from isolated rat brain stem to electrical stimulation
Source text: After a single washout the neurons work immediately on their normal activity level again. Since neurons respond to stimulation in an “all or none” manner, it is obvious that only a part of the neuronal population (the most excitable ones) respond to the electrical stimulation.
This measurement can be made, mutatis mutandis, analogously to the measurement described in example 2 of EP1052259B1 (corresponding to WO2000026204A1). The method is described in [Knoll J, Knoll B and Miklya I Life Sci, 58, 2101-2114 (1996)].
In short the brain stem (average weight about 800 mg) is isolated from rats and soaked in oxygenated Krebs' solution. Then solution of labelled neurotransmitter the release of which is measured is added to the preparation and allowed for uptake in an appropriate environment. If needed, MAO activity is inhibited.
After uptake of the monoamine the brain stem is fixed in appropriate organ bath and washed in appropriate solution facilitating uptake and preventing metabolization of the monoamine.
Fractionation of the perfusate is carried out periodically and, if the monoamine is radiolabelled, fractions are combined with a scintillation liquid.
The organ is perfused with the buffer containing the compound(s) of the invention for sufficient time before electrostimulation.
The brain stem is stimulated with rectangular pulses (e.g. 3 Hz, 1 ms 60 V) e.g. for 3 min. At the beginning of the experiment, the several, e.g. three resting periods of fraction were proceeded prior to the first stimulation. Thereafter it is allotted several, e.g. seven resting periods of fraction between stimulation.

[11] = shuttle box, 1 mg/kg tetrabenazine s.c.

**Q.** Which results are given for `C#CCN(C)[C@H](C)Cc1ccccc1` [(−)-Deprenyl, (R)—N-methyl-N-(1-phenylpropan-2-yl)prop-2-yn-1-amine, reference compound]?
**A.** released amount of labeled transmitter ([3H]-norepinephrine, [3H]-dopamine or [3H]-serotonin) [1]: significantly higher; dose-effect-relation of the enhancer effect ([2]; shuttle box (FIG. 3)): bi-modal, bell-shaped; optimal dose that exerted the specific enhancer effect [2, 11]: 0.001 mg/kg; very high dose range effective in antagonizing the tetrabenazine-induced learning deficit (MAO-A inhibition) [2, 11]: 5 to 10 mg/kg; Number of detected lung carcinoma ([3]; 0.001 mg/kg daily, 2 dissected mice): 0; Number of detected lung carcinoma ([3]; 0.1 mg/kg daily, 4 dissected mice): 1; rats that lived longer than the maximum lifespan ever observed in the strain ([4]; HP rats, out of 50): 17 rats; lifespan versus saline treated peers ([4]; sexually lowest performing (LP) rats, n=49): lived significantly longer than their saline treated peers; month of age in which the first animal died ([5]; 0.001 mg/kg s.c. 3 times a week, N=40): 13 month; rats remained alive to the end of the 32nd month ([5]; 0.001 mg/kg, N=40): none; month of age in which the first animal died ([5]; 0.1 mg/kg s.c. 3 times a week, N=40): 11 month; lifespan compared with saline-treated peers ([5]; both doses of the longevity study (FIGS. 5-8)): did not prolong the lifespan of rats significantly; tumor manifestation suppressing (TMS) effect versus saline ([6]; 0.001 mg/kg): not significant; month of age in which the first animal manifested the tumor ([6]; 0.001 mg/kg, N=40): 12 month; rats in the group manifested the tumor to the end of the 32nd month ([6]; 0.001 mg/kg, N=40): 15 rats; tumor manifestation suppressing (TMS) effect versus saline ([6]; 0.1 mg/kg, P<0.01, listed as (−)-deprenyl): significantly decreased; tumor manifestation suppressing (TMS) effect versus saline ([6]; 0.1 mg/kg, P<0.01, listed as Deprenyl): suppressed the manifestation of the fibromyxosarcoma significantly; month of age in which the first animal manifested the tumor ([6]; 0.1 mg/kg, N=40): 16 month; rats in the group manifested the tumor to the end of the 32nd month ([6]; 0.1 mg/kg, N=40): 11 rats; rats manifested the tumor when the group completed the 30th month of life ([6]; 0.1 mg/kg, N=40): 11 rats; span of time from tumor manifestation until death ([6]; chronic treatment, versus saline (FIG. 13), One-way ANOVA): no significant difference; proliferation of cultured medulloblastoma cells ([7]; listed as (−)-deprenyl): did not inhibit the proliferation; proliferation of cultured medulloblastoma cells ([7]; listed as Deprenyl): none of the applied concentrations did Deprenyl or BPAP influence the proliferation; proliferation of cultured medulloblastoma cells ([8]; listed as (−)-deprenyl): did not inhibit the proliferation; proliferation of cultured medulloblastoma cells ([8]; listed as Deprenyl): none of the applied concentrations did Deprenyl or BPAP influence the proliferation

**Q.** For `COc1cc2c(cc1OC)C1CC(=O)C(CC(C)C)CN1CC2` (centres unmarked) [Tetrabenazine, Tetrabenazine HCl], which “depletion of norepinephrine and dopamine from their stores in the nerve terminals” value [9] is on record?
**A.** Its value is “at least 90%”.

**Q.** For `C#CCN(C)CCCOc1ccc(Cl)cc1Cl` [clorgyline], which “release of [3H]-SER to electrical stimulation” value (“release of [3H]-SER” below) ([10]; 250 ng/ml) is on record?
**A.** The value was “None of these compounds enhanced the release”.

**Q.** Which “release of [3H]-SER” value ([10]; 50 ng/ml) does the source give for `CNCCC(Oc1ccc(C(F)(F)F)cc1)c1ccccc1` (centres unmarked) [fluoxetine] here?
**A.** Its value is “None of these compounds enhanced the release”.

**Q.** With `NCCNC(=O)c1ccc(Cl)cn1` [lazabemide] as the compound, how does the “release of [3H]-SER” value ([10]; 250 ng/ml) read?
**A.** Its value is “None of these compounds enhanced the release”.
